According to patent US8846951B2 (AbbVie Inc., priority 2009, dated 2014):
Read-outs that look alike come from different tables or passages of the source.

What was measured:
5HT2C receptors = biological target: T1, 5HT2C receptors (Homo sapiens, UniProt P28335); experiment: Human 5-HT2C functional high throughput screening assay in CHO-K1 cells (calcium flux); type: cell-based; set-up: expressed in transfected cells; host or cells: CHO-K1 cells; details: for EC50: CHO-K1 cells, calcium flux
T1 sequence (P28335 33-458): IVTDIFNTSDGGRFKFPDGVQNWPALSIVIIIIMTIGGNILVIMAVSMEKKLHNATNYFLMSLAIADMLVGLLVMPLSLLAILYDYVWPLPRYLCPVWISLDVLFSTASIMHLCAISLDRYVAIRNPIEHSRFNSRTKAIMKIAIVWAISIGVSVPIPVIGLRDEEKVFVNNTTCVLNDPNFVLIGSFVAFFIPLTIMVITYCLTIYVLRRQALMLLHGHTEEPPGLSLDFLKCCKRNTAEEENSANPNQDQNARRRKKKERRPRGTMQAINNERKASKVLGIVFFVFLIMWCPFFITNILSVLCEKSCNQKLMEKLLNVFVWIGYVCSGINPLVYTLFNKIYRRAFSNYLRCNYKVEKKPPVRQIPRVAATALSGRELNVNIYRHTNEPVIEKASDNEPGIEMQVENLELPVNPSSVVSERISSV
Procedure, shortened: (§1)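 FLIPR calcium readout, ex 480/em 530 nm, 25 °C, 3 min post-addition; agonist response normalized to serotonin, 4-parameter fit → EC50, Emax (% serotonin). Cells: frozen CHO-K1 stable lines, serum-free overnight, Ca4 dye + 2.5 mM probenecid, 60 min RT dark.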

5HT2B receptors = biological target: T2, 5HT2B receptors (Homo sapiens, UniProt P41595); experiment: Human 5-HT2B functional high throughput screening assay in CHO-K1 cells (calcium flux); type: cell-based; details: for EC50: CHO-K1 cells, calcium flux
T2 construct: expressed in transfected cells; host or cells: CHO-K1 cells
Procedure, shortened: as §1

[1] = 5-HT2C agonist activity, read-out: EC50
[2] = CHO-K1, 5-HT2C, maximum functional response as percentage relative to the effect of serotonin, read-out: Emax
[3] = 5-HT2B agonist activity, read-out: EC50
[4] = 5-HT2B, maximum functional response as percentage relative to the effect of serotonin
[5] = CHO-K1, 5-HT2C, maximum functional response as percentage relative to the effect of serotonin

T2 sequence (P41595 whole entry): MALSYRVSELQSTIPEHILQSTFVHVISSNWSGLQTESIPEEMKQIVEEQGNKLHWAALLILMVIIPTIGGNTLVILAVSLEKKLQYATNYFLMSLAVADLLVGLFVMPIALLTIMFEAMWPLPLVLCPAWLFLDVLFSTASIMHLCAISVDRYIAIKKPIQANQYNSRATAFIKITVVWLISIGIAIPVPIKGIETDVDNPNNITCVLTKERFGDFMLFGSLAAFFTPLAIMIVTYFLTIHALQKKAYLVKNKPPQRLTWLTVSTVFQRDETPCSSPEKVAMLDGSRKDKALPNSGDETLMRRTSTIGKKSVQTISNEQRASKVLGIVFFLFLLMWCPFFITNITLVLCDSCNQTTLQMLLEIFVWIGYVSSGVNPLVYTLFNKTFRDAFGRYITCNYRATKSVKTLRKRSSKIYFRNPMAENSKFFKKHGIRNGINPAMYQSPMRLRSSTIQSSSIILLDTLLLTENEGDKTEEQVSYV

| Structure (SMILES) | EC50 (5HT2C receptors; [1]) [nM] | Emax (5HT2C receptors; [2]) [%] | EC50 (5HT2B receptors; [3]) [nM] | Emax (5HT2B receptors; [4]) | Emax (5HT2C receptors; [5]) [%] | also measured |
| --- | --- | --- | --- | --- | --- | --- |
| C[C@H](O)c1cc(-c2ccc3c(c2)C(=O)NC[C@H]2CN(C)C[C@H]32)ccc1F (single isomer, unassigned) [Example 352] | 0.4 | 105 | > 10000 | inactive |  |  |
| COc1cc(OC)c2c(c1)C(=O)NC[C@@H]1CNC[C@@H]21 (relative stereo) [Example 100, Trans-8,10-dimethoxy-1,2,3,3a,4,5-hexahydrobenzo[c]pyrrolo[3,4-e]azepin-6(10bH)-one] |  |  |  |  | > 120 | EC50 (5HT2C receptors; EC50, 5-HT2C agonist activity): 3 nM; Emax (5HT2B receptors; CHO-K1): 70%; EC50 (5HT2B receptors; EC50, 5-HT2B agonist activity): 900 nM |
| CN1C[C@@H]2CNC(=O)c3cc(-c4cccc(S(C)(=O)=O)c4)ccc3[C@H]2C1 [Example 228, (3aS,10bS)-2-Methyl-8-(3-(methylsulfonyl)phenyl)-1,2,3,3a,4,5-hexahydrobenzo[c]pyrrolo[3,4-e]azepin-6(10bH)-one] | 7 | > 120 | > 10000 | inactive |  |  |
| O=S(=O)(c1ccc(Cl)c(Cl)c1)N1Cc2cccnc2[C@@H]2CNC[C@H]2C1 (relative stereo) [Example 334, Trans-6-[(3,4-dichlorophenyl)sulfonyl]-5,6,7,7a,8,9,10,10a-octahydropyrido[3,2-c]pyrrolo[3,4-e]azepine] | 70 | 90 | > 10000 | inactive |  |  |
| COc1ccc2c(c1)[C@H]1CN(Cc3ccccc3)C[C@@H]1CCC2=O (relative stereo) [Example 261, Trans-2-benzyl-9-methoxy-2,3,3a,4,5,10b-hexahydrobenzo[3,4]cyclohepta[1,2-c]pyrrol-6(1H)-one] | 40 | > 120 | > 10000 | inactive |  |  |
| CN1C[C@H]2CNC(=O)c3cc(C4CCCC4)ccc3[C@@H]2C1 (relative stereo) [Example 205, Trans-8-cyclopentyl-2-methyl-1,2,3,3a,4,5-hexahydrobenzo[e]pyrrolo[3,4-c]azepin-6(10bH)-one] | 300 |  | > 10000 | inactive | 90 |  |
| O=C1NC[C@@H]2CNC[C@H]2c2c1sc1ccccc21 (relative stereo) [Example 99, Trans-2,3,3a,4,5,11c-hexahydro[1]benzothieno[2,3-e]pyrrolo[3,4-e]azepin-6(1H)-one] |  |  |  |  | > 120 | EC50 (5HT2C receptors; EC50, 5-HT2C agonist activity): 20 nM; Emax (5HT2B receptors; CHO-K1): 90%; EC50 (5HT2B receptors; EC50, 5-HT2B agonist activity): 1000 nM |
| Clc1ccc2c(c1)[C@H]1CNC[C@@H]1CCO2 [Example 233, (3aR,10bS)-9-Chloro-2,3,3a,4,5,10b-hexahydro-1H-[1]benzoxepino[4,5-c]pyrrole] |  |  |  |  | > 120 | Emax (5HT2B receptors; CHO-K1): 55% |
| COc1ccc(-c2ccc3c(c2)C(=O)NC[C@H]2CN(C)C[C@H]32)cn1 [Example 318, (3aS,10bS)-8-(6-Methoxypyridin-3-yl)-2-methyl-2,3,3a,4,5,10b-hexahydropyrrolo[3,4-d][2]benzazepin-6(1H)-one] |  |  |  | inactive | 90 | EC50 (5HT2C receptors; EC50, 5-HT2C agonist activity): 10 nM; EC50 (5HT2B receptors; EC50, 5-HT2B agonist activity): > 10000 nM |
| CN1C[C@@H]2CNC(=O)c3cc(OCc4c(F)ccc(F)c4F)ccc3[C@H]2C1 [Example 213, (3aS,10bS)-2-Methyl-8-(2,3,6-trifluorobenzyloxy)-1,2,3,3a,4,5-hexahydrobenzo[e]pyrrolo[3,4-c]azepin-6(10bH)-one] | 1 | > 120 | > 10000 | inactive |  |  |
| O=C1NC[C@@H]2CN(CCF)C[C@H]2c2ccc(-c3ccc(F)cc3)cc21 (relative stereo) [Example 384, Trans-2-(2-fluoroethyl)-8-(4-fluorophenyl)-2,3,3a,4,5,10b-hexahydropyrrolo[3,4-d][2]benzazepin-6(1H)-one] | 40 |  | > 10000 |  |  | Emax (5HT2C receptors; CHO-K1): 85%; Emax (5HT2B receptors): inactive |
| Cc1noc(C)c1-c1ccc2c(c1)C(=O)NC[C@@H]1CNC[C@@H]21 (single isomer, unassigned) [Example 292, Trans-8-(3,5-dimethyl-1,2-oxazol-4-yl)-2,3,3a,4,5,10b-hexahydropyrrolo[3,4-d][2]benzazepin-6(1H)-one] |  |  |  | 15% |  | EC50 (5HT2C receptors; 5-HT2C agonist activity): 50 nM; Emax (5HT2C receptors; 5-HT2C, maximum functional response as percentage relative to the effect of serotonin): 100%; EC50 (5HT2B receptors; 5-HT2B agonist activity): 2000 nM |
| O=C1NC[C@@H]2CN(Cc3ccccc3)C[C@H]2c2ccc(O)cc21 (relative stereo) [Example 117, Trans-2-benzyl-8-hydroxy-1,2,3,3a,4,5-hexahydrobenzo[e]pyrrolo[3,4-c]azepin-6(10bH)-one] | 200 | > 120 | > 10000 | inactive |  |  |
| CC(C)Cc1ccc2c(c1)C(=O)NC[C@@H]1CN(C)C[C@@H]21 (relative stereo) [Example 244, Trans-8-isobutyl-2-methyl-1,2,3,3a,4,5-hexahydrobenzo[e]pyrrolo[3,4-c]azepin-6(10bH)-one] |  |  |  | inactive | 80 | EC50 (5HT2C receptors; EC50, 5-HT2C agonist activity): 100 nM; EC50 (5HT2B receptors; EC50, 5-HT2B agonist activity): > 10000 nM |
| CN1C[C@@H]2CNC[C@H]2c2ccc(-c3cccc(CCO)c3)cc2C1=O (relative stereo) [Example 189, Trans-8-(3-(2-hydroxyethyl)phenyl)-5-methyl-1,2,3,3a,4,5-hexahydrobenzo[e]pyrrolo[3,4-c]azepin-6(10bH)-one] | 0.9 | > 120 | > 10000 | inactive |  |  |
| Clc1cccc2c1OCC[C@H]1CNC[C@@H]21 (relative stereo) [Example 295, Cis-7-chloro-2,3,3a,4,5,10b-hexahydro-1H-[1]benzoxepino[4,5-c]pyrrole] |  |  |  |  | 100 | EC50 (5HT2C receptors; EC50, 5-HT2C agonist activity): 10 nM; Emax (5HT2B receptors; CHO-K1): 40%; EC50 (5HT2B receptors; EC50, 5-HT2B agonist activity): 60 nM |
| COc1cccc(-c2ccc3c(c2)C(=O)NC[C@@H]2CN(C)C[C@@H]32)c1 [Example 161, (3aR,10bR)-8-(3-Methoxyphenyl)-2-methyl-1,2,3,3a,4,5-hexahydrobenzo[e]pyrrolo[3,4-c]azepin-6(10bH)-one] |  | 110 | > 10000 | inactive |  |  |
| C[C@@H](Cc1ccccc1)Oc1ccc2c(c1)C(=O)NC[C@@H]1CN(Cc3ccccc3)C[C@@H]21 (mixture of isomers) [Example 120, Trans-2-benzyl-8-((S)-1-phenylpropan-2-yloxy)-1,2,3,3a,4,5-hexahydrobenzo[e]pyrrolo[3,4-c]azepin-6(10bH)-one] | 400 | 110 | > 10000 | inactive |  |  |
| O=S(=O)(c1ccccc1)N1Cc2cccnc2[C@@H]2CNC[C@H]2C1 (relative stereo) [Example 338, Trans-6-(phenylsulfonyl)-5,6,7,7a,8,9,10,10a-octahydropyrido[3,2-c]pyrrolo[3,4-e]azepine] |  |  |  |  | 80 | EC50 (5HT2C receptors; EC50, 5-HT2C agonist activity): 100 nM; Emax (5HT2B receptors; CHO-K1): 20%; EC50 (5HT2B receptors; EC50, 5-HT2B agonist activity): 800 nM |
| COc1ccccc1-c1ccc2c(c1)C(=O)NC[C@@H]1CN(C)C[C@@H]21 (relative stereo) [Example 137, Trans-8-(2-methoxyphenyl)-2-methyl-1,2,3,3a,4,5-hexahydrobenzo[e]pyrrolo[3,4-c]azepin-6(10bH)-one] | 100 | > 120 | > 10000 | inactive |  |  |
| CN1C[C@@H]2CNC(=O)c3cc(OCc4ccc(F)cc4)ccc3[C@H]2C1 [Example 211, (3aS,10bS)-8-(4-Fluorobenzyloxy)-2-methyl-1,2,3,3a,4,5-hexahydrobenzo[e]pyrrolo[3,4-c]azepin-6(10bH)-one] | 2 | > 120 | > 10000 | inactive |  |  |
